Patent US10724028B2, “Ligand-binding fiber and cell culture substrate using said fiber” (NISSAN CHEMICAL INDUSTRIES, LTD., priority 2014, dated 2020)

Test system: TPO-dependent human megakaryoblastic leukemia cell line (UT-7/TPO)
Assay: Cell culture evaluation: UT-7/TPO cell number count using WST-8 after 6 days of culture on the substrate
Format: cell-based
Procedure: The ligand-bonded fiber 1 of Example 1 and the fiber of Comparative Example 1 were subjected to cell culture evaluation. As a control for the evaluation, a system in which PSt substrate was configured (positive control: thrombopoietin (TPO) (10 ng/mL) was added to medium, negative control: medium alone) was used. In the following, the CO2 concentration (%) of the CO2 incubator is shown by % by volume of CO2 in the atmosphere.
As the cell, TPO-dependent human megakaryoblastic leukemia cell line (UT-7/TPO; Komatsu et. al., Blood, 1996, 87, pp. 4552-4560) was used. For cell culture, IMDM (Iscove's Modified Dulbecco's Medium) medium (manufactured by Sigma-Aldrich) containing 10% (v/v) FBS and 10 ng/mL TPO (Thrombopoietin, manufactured by PeproTech) was used. The cells were cultured for not less than 2 days in a CO2 incubator at 37° C. while keeping 5% carbon dioxide concentration. The obtained culture medium was centrifuged (manufactured by TOMY SEIKO Co., Ltd., LC-200, 1500 rpm/3 min, room temperature), the supernatant was removed, the above-mentioned IMDM medium free of TPO was added to prepare a cell suspension. The “FBS” here means fetal bovine serum (manufactured by Biological Industries).
The ligand-bonded fiber of Example 1, the fiber of Comparative Example 1, and PSt substrate (for positive control and negative control) were configured in 6 well flat-bottom microplates (manufactured by AS ONE Corporation). […]
After 6 days of cell culture, the cell culture medium was recovered from respective wells in which the ligand-bonded fibers 1-3 of Examples 1-3, the fiber of Comparative Example 1, the substrate of Comparative Example 2, and PSt substrates for positive control and negative control were configured. […] After standing in a CO2 incubator at 37° C. for 120 min, the absorbance at 450 nm was measured by an absorption spectrometer (manufactured by Molecular Devices, SpectraMax). […]
After 6 days of culture, the cell number was counted in the same manner as above by using WST-8. […]

thrombopoietin [positive control]
100%: cell number (%) cell culture, first time (Table 3, UT-7/TPO, 6 days culture, positive control (TPO 10 ng/mL) as 100%) | cell number (%) cell culture, third time (Table 3, same substrate reused a third time, fresh UT-7/TPO cells, 6 days, positive control as 100%) | cell number (%) cell culture, second time (Table 3, same substrate reused after PBS wash, fresh UT-7/TPO cells, 6 days, positive control as 100%)
